Source: ChEMBL document CHEMBL5046254, “Mycobactin Analogues with Excellent Pharmacokinetic Profile Demonstrate Potent Antitubercular Specific Activity and Exceptional Efflux Pump Inhibition” (J Med Chem, 2022)
In brackets after ≈: the same amount, converted by molar mass.

How the values were obtained:
[1] = test system: Mycobacterium tuberculosis variant bovis; assay: Antimicrobial activity against Mycobacterium bovis BCG ATCC 35734 cultured in GAST-Fe media incubated for 5 days by resazurin microtiter assay; assay type: functional; conditions: BCG ATCC 35734, 120 h, time 5 day
[2] = test system: Mycobacterium tuberculosis variant bovis; assay: Antimicrobial activity against Mycobacterium bovis BCG ATCC 35734 cultured in GAST media incubated for 5 days by resazurin microtiter assay; assay type: functional; conditions: BCG ATCC 35734, 120 h, time 5 day

Compound: Oc1ccccc1C1=NNC(c2ccc(Cl)cc2)C1 (stereo not drawn)
- MIC90 [1]: 32 µg/mL (≈ 117 µM)
- MIC90 [2]: 8 µg/mL (≈ 29.3 µM)

Compound: NC(=S)N1N=C(c2ccccc2O)CC1c1ccccc1 (stereo not drawn)
- MIC90 [1]: 32 µg/mL (≈ 108 µM)
- MIC90 [2]: 16 µg/mL (≈ 53.8 µM)

Compound: Oc1ccccc1C1=NNC(c2ccc(Br)cc2)C1 (stereo not drawn)
- MIC90 [1]: 64 µg/mL (≈ 202 µM)
- MIC90 [2]: 8 µg/mL (≈ 25.2 µM)

Compound: NC(=S)N1N=C(c2ccccc2O)CC1c1ccc(O)cc1 (stereo not drawn)
- MIC90 [1]: 32 µg/mL (≈ 102 µM)
- MIC90 [2]: 16 µg/mL (≈ 51.1 µM)
